# Experimental data taken from PMC2863073 (Glia, 2008).
# System: oligodendrocyte NMDA receptor (NR1-containing; probably NR1, NR2C and NR3)
# Assay: whole-cell patch clamp of NMDA-evoked current, […] min memantine pre-exposure
# Format: cell-based, Rattus norvegicus
smiles,measurement,value
CC12CC3CC(C)(C1)CC(N)(C3)C2 [memantine],IC50,54 µM
